Experimental data: patent publication US10570155B2, “Imidazooxazole derivative having antitumor effect, and pharmaceutical composition including same” (KOREA INSTITUTE OF SCIENCE AND TECHNOLOGY, priority 2016, dated 2020)
Where two headings read alike, the source gives them in different places. Values belong to the molecule of their own block, whether it stands above or below them.

Tests used:
[1] = tested on: A375P cell line; test: Inhibitory activity against proliferation of A375P melanoma cell line (MTT assay); format: cell-based; conditions: Homo sapiens
Experimental: To examine whether the compounds (2II, 9II, 10II, and 12II to 15II) of the present disclosure have remarkable effects, as compared with imidazothiazole-based compounds previously disclosed by the present inventors (M. S. Abdel-Maksoud et al./European Journal of Medicinal Chemistry 95 (2015) 453-463), inhibitory activities thereof against proliferation of A375P cell line which is a melanoma cell line were compared by the following experiments.
A375P cell line purchased from ATCC was cultured in a DMEM medium [containing 10% FBS and 1% penicillin/streptomycin] under 5% CO2 at 37° C. The cultured A375P cell line was collected using 0.05% trypsin-0.02% EDTA, and inoculated at a cell density of 5×10^3 cells per well in a 96-well plate. To measure cell viability, MTT [3-(4,5-dimethylthiazol-2-yl)-2,5-diphenyltetrazolium bromide] assay (CellTiter 96 Assay, Promega) was performed as follows. MTT assay was performed in accordance with the guidelines of CellTiter 96® (Promega).

[2] = tested on: SK-MEL-28; test: NCI cancer cell line panel screening (SRB), melanoma cell line SK-MEL-28; format: cell-based, human; conditions: Homo sapiens, read-out: IC50 against melanoma cell line in vitro
Experimental: (§1) According to the standard protocol (http://dtp.nci.nih.gov/dtpstandard/dwindex/index.isp) of the US National Cancer Institute (NCI) (www.dtp.nci.nih.gov), screening of a cancer cell line panel was performed. […] For a general screening experiment, cells were inoculated in 96-well microtiter plates in 100 μl at a plating density ranging from 5000 cells/well to 40,000 cells/well depending on the doubling time of individual cell lines. After cell inoculation, the microtiter plates were incubated at 37° C., 5% CO2, 95% air, and 100% relative humidity for 24 hours prior to addition of test compounds. 24 hours later, two plates of each cell line were fixed in situ with trichloroacetic acid (TCA) to measure the cell population for each cell line at the time of test compound addition (Tz). Test compounds were solubilized in dimethyl sulfoxide at 400-fold the intended final maximum test concentration, and stored frozen prior to use. At the time of compound addition, an aliquot of frozen concentrate was thawed and diluted to twice the intended final maximum test concentration with a complete medium containing 50 μg/ml of gentamicin. Additional four concentration of 10-fold or ½ log serial dilutions were made to provide a total of five compound concentrations plus control. Aliquots of 100 μl of these different compound dilutions were added to appropriate microtiter wells already containing 100 μl of medium, resulting in the required final compound concentrations.
(§2) Following compound addition, the plates were incubated for additional 48 hours at 37° C., 5% CO2, 95% air, and 100% relative humidity. For adherent cells, the assay was terminated by the addition of cold TCA. Cells were fixed in situ by the gentle addition of 50 μl of cold 50% (w/v) TCA (final concentration, 10% TAC) and incubated at 4° C. for 60 minutes. The supernatant was discarded, and the plates were washed five times with tap water and air-dried. A sulforhodamine B (SRB) solution (100 μl) at 0.4% (w/v) in 1% acetic acid was added to each well, and plates were incubated at room temperature for 10 minutes. After staining, unbound dye was removed by washing five times with 1% acetic acid and the plates were air-dried. […] For suspension cells, the methodology was the same except that the assay was terminated by fixing settled cells at the bottom of the wells by gently adding 50 μl of 80% TCA (final concentration, 16% TCA). Using the seven absorbance measurements [time zero (Tz), control growth (C), and test growth rate in the presence of compound at the five concentration levels (Ti)], the growth percentage was calculated at each of the compound concentration levels. Growth inhibition percentage was calculated as follows: [(Ti−Tz)/(C−Tz)]×100 for concentrations for which Ti>/=Tz [(Ti−Tz)/Tz]×100 for concentrations for which Ti<Tz.

[3] = tested on: SK-MEL-2; test: NCI cancer cell line panel screening (SRB), melanoma cell line SK-MEL-2; format: cell-based, human; conditions: read-out: IC50 against melanoma cell line in vitro
Experimental: as §1, §2

[4] = tested on: SK-MEL-5; test: NCI cancer cell line panel screening (SRB), melanoma cell line SK-MEL-5; format: cell-based, human; conditions: read-out: IC50 against melanoma cell line in vitro
Experimental: as §1, §2

[5] = tested on: UACC-62; test: NCI cancer cell line panel screening (SRB), melanoma cell line UACC-62; format: cell-based; conditions: Homo sapiens, read-out: IC50 against melanoma cell line in vitro
Experimental: (§3) According to the standard protocol (http://dtp.nci.nih.gov/dtpstandard/dwindex/index.isp) of the US National Cancer Institute (NCI) (www.dtp.nci.nih.gov), screening of a cancer cell line panel was performed. Briefly, human cell lines were allowed to grow in an RPMI 1640 medium containing 5% FBS and 2 mM L-glutamine. For a general screening experiment, cells were inoculated in 96-well microtiter plates in 100 μl at a plating density ranging from 5000 cells/well to 40,000 cells/well depending on the doubling time of individual cell lines. After cell inoculation, the microtiter plates were incubated at 37° C., 5% CO2, 95% air, and 100% relative humidity for 24 hours prior to addition of test compounds. 24 hours later, two plates of each cell line were fixed in situ with trichloroacetic acid (TCA) to measure the cell population for each cell line at the time of test compound addition (Tz). Test compounds were solubilized in dimethyl sulfoxide at 400-fold the intended final maximum test concentration, and stored frozen prior to use. At the time of compound addition, an aliquot of frozen concentrate was thawed and diluted to twice the intended final maximum test concentration with a complete medium containing 50 μg/ml of gentamicin. Additional four concentration of 10-fold or ½ log serial dilutions were made to provide a total of five compound concentrations plus control. Aliquots of 100 μl of these different compound dilutions were added to appropriate microtiter wells already containing 100 μl of medium, resulting in the required final compound concentrations.
(§4) Following compound addition, the plates were incubated for additional 48 hours at 37° C., 5% CO2, 95% air, and 100% relative humidity. For adherent cells, the assay was terminated by the addition of cold TCA. Cells were fixed in situ by the gentle addition of 50 μl of cold 50% (w/v) TCA (final concentration, 10% TAC) and incubated at 4° C. for 60 minutes. The supernatant was discarded, and the plates were washed five times with tap water and air-dried. A sulforhodamine B (SRB) solution (100 μl) at 0.4% (w/v) in 1% acetic acid was added to each well, and plates were incubated at room temperature for 10 minutes. After staining, unbound dye was removed by washing five times with 1% acetic acid and the plates were air-dried. Bound stain was subsequently solubilized with 10 mM Trizma base, and the absorbance was read on an automated plate reader at a wavelength of 515 nm. For suspension cells, the methodology was the same except that the assay was terminated by fixing settled cells at the bottom of the wells by gently adding 50 μl of 80% TCA (final concentration, 16% TCA). Using the seven absorbance measurements [time zero (Tz), control growth (C), and test growth rate in the presence of compound at the five concentration levels (Ti)], the growth percentage was calculated at each of the compound concentration levels. Growth inhibition percentage was calculated as follows: [(Ti−Tz)/(C−Tz)]×100 for concentrations for which Ti>/=Tz [(Ti−Tz)/Tz]×100 for concentrations for which Ti<Tz.

[6] = tested on: M14; test: NCI cancer cell line panel screening (SRB), melanoma cell line M14; format: cell-based; conditions: Homo sapiens, read-out: IC50 against melanoma cell line in vitro
Experimental: as §3, §4

[7] = tested on: MDA-MB-435; test: NCI cancer cell line panel screening (SRB), melanoma cell line MDA-MB-435; format: cell-based; conditions: Homo sapiens, read-out: IC50 against melanoma cell line in vitro
Experimental: as §3, §4

[8] = tested on: LOX IMVI; test: NCI cancer cell line panel screening (SRB), melanoma cell line LOX IMVI; format: cell-based, human; conditions: read-out: IC50 against melanoma cell line in vitro
Experimental: as §1, §2

[9] = target: B-RAF (Homo sapiens (Human), UniProt P15056); test: Protein kinase enzymatic activity (Reaction Biology kinase hotspot, 33P-ATP); format: biochemical; conditions: read-out: Inhibitory effect against kinase activity, B-RAF (IC50)
Experimental: (§5) Reaction biology kinase hotspot service (http://www.reactionbiology.com) was used to measure IC50. In a final reaction volume of 25 μL, kinase (5 mU to 10 mU) was incubated with 25 mM Tris (pH 7.5), 0.02 mM EGTA, 0.66 mg/ml of myelin basic protein, 10 mM magnesium acetate, and [^33P-ATP] (specific activity of about 500 CPM/pmol, concentration as required). The reaction was initiated by addition of Mg-ATP mix. After incubation for 40 min at room temperature, the reaction was stopped by addition of 5 μl of a 3% phosphoric acid solution. 10 μL of the reaction was then spotted onto a P30 filtermat and washed three times for 5 minutes in 75 mM phosphoric acid and once in methanol prior to drying and scintillation counting.

[10] = target: V600E-B-RAF (Homo sapiens (Human), UniProt P15056, V600E); test: as above; format: biochemical; conditions: read-out: Inhibitory effect against kinase activity, V600E-B-RAF (IC50)
Experimental: as §5

[11] = tested on: A375; test: NCI cancer cell line panel screening (SRB), melanoma cell line A375; format: cell-based; conditions: Homo sapiens, A-375, read-out: IC50 against melanoma cell line in vitro
Experimental: as §3, §4

Sequence of V600E-B-RAF (P15056 whole entry V600E): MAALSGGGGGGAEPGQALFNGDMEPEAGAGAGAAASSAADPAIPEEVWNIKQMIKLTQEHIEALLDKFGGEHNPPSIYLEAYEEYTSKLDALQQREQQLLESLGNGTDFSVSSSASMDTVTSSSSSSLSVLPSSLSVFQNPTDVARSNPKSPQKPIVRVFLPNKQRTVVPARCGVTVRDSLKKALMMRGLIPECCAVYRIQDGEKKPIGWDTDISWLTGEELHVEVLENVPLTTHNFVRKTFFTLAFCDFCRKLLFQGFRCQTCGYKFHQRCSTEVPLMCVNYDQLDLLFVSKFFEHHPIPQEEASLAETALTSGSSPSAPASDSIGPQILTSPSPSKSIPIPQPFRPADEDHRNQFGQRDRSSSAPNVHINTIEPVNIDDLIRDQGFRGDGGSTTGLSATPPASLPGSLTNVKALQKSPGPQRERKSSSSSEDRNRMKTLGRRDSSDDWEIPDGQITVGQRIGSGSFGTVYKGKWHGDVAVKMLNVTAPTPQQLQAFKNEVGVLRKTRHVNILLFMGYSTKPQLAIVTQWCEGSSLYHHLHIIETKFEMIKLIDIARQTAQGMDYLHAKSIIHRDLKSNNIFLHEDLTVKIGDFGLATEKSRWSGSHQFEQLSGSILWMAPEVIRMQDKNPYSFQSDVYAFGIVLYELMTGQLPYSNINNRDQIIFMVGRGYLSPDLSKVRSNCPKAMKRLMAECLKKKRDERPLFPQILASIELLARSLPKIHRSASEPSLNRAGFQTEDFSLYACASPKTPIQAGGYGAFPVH
Sequence of B-RAF (P15056 whole entry): as the sequence (P15056 whole entry V600E) above, with E600V counted along it

IC50 [1]: 380 nM
SMILES: CCN1CCN(CCNc2nccc(-c3c(-c4ccc(F)cc4)nc4sccn34)n2)S1(=O)=O [reference compound]

SMILES: COc1ccc(S(=O)(=O)NCCNc2nccc(-c3c(-c4ccccc4)nc4sccn34)n2)cc1 [2III, 4-Methoxy-N-(2-((4-(6-phenylimidazo[2,1-b]thiazol-5-yl)pyrimidin-2-yl)amino)ethyl)benzenesulfonamide]
IC50 [2]: 5790 nM
IC50 ([3]; Homo sapiens): 4980 nM
IC50 ([4]; Homo sapiens): 1680 nM
IC50 [5]: 1170 nM
IC50 [6]: 2770 nM
IC50 [7]: 1220 nM
IC50 ([8]; Homo sapiens): 3940 nM
IC50 [9]: 459 nM
IC50 [10]: 77 nM

IC50 [1]: 250 nM
SMILES: O=S1(=O)N(CCNc2nccc(-c3c(-c4cccc(O)c4)nc4sccn34)n2)CCN1Cc1ccccc1

IC50 [1]: 470 nM
SMILES: CC(C)(C)OC(=O)N1CCCN(CCNc2nccc(-c3c(-c4cccc(O)c4)nc4sccn34)n2)S1(=O)=O

IC50 [1]: > 10000 nM
SMILES: O=S1(=O)N(CCNc2nccc(-c3c(-c4ccc(F)cc4)nc4sccn34)n2)CCN1Cc1ccccc1 [reference compound]

SMILES: O=S(=O)(NCCNc1nccc(-c2c(-c3cccc(O)c3)nc3sccn23)n1)c1ccc(F)cc1 [25III, 4-Fluoro-N-(2-((4-(6-(3-hydroxylphenyl)imidazo[2,1-b]thiazol-5-yl)pyrimidin-2-yl)amino)ethyl)benzenesulfonamide]
IC50 [2]: 660 nM
IC50 [3]: 4490 nM
IC50 [4]: 1610 nM
IC50 [5]: 260 nM
IC50 [6]: 560 nM
IC50 [7]: 930 nM
IC50 [11]: 480 nM
IC50 [8]: 4110 nM
IC50 [9]: 5.7 nM
IC50 [10]: 1 nM

IC50 [1]: 630 nM
SMILES: O=S1(=O)NCCN1CCNc1nccc(-c2c(-c3cccc(O)c3)nc3sccn23)n1

IC50 [1]: 1900 nM
SMILES: O=S1(=O)NCCN1CCNc1nccc(-c2c(-c3ccc(F)cc3)nc3sccn23)n1 [reference compound]

IC50 [1]: 600 nM
SMILES: CN1CCN(CCNc2nccc(-c3c(-c4ccc(F)cc4)nc4sccn34)n2)S1(=O)=O [reference compound]

IC50 [1]: 470 nM
SMILES: CN1CCCN(CCNc2nccc(-c3c(-c4cccc(O)c4)nc4sccn34)n2)S1(=O)=O
